The IC50 is the midpoint of a concentration-inhibition curve.

Structures can show the parent of a compound that is named as a salt.

The values that follow come from patent US8604042B2, “Bi-aryl meta-pyrimidine inhibitors of kinases” (TargeGen, Inc., priority 2005, dated 2013).

In the experiment the target is T1, recombinant JAK2 (Homo sapiens, UniProt O60674).
T1 construct: purchased Upstate Cell Signaling Solutions
Description: IC50 value determinations for Jak2 kinase, luminescence-based kinase assay (Kinase-Glo). Format: biochemical. Particulars: Table 1.

T1 sequence (O60674 808-1132 limits assumed): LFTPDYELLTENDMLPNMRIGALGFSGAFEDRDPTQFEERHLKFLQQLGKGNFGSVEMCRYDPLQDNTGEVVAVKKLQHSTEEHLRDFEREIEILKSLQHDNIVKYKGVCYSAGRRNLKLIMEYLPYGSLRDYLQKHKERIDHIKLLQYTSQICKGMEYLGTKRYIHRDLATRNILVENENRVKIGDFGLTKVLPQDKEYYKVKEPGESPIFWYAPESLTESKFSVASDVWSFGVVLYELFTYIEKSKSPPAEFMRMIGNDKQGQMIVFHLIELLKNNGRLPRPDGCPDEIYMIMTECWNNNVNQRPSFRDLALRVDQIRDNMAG

For `Cc1cnc(Nc2ccc(CN3CCN(C)CC3)cc2)nc1Nc1cccc(S(=O)(=O)NC(C)(C)C)c1`, the IC50 worked out at 29.8 nM.
To `Cc1cnc(Nc2ccc(N3CCN(C)CC3)cc2)nc1Nc1cccc(NC(=O)Nc2cccc(C(F)(F)F)c2)c1` [1-(3-{5-Methyl-2-[4-(4-methyl-piperazin-1-yl)-phenylamino]-pyrimidin-4-ylamino}-phenyl)-3-(3-trifluoromethyl-phenyl)-urea] belongs 126 nM.
In the case of `Cc1cnc(Nc2ccc(N3CCN(C)CC3)cc2)nc1Nc1cccc(NC(=O)Nc2ccccc2)c1` [1-(3-{5-Methyl-2-[4-(4-methyl-piperazin-1-yl)-phenylamino]-pyrimidin-4-ylamino}-phenyl)-3-phenyl-urea], the IC50 was 63.6 nM.
To `CNS(=O)(=O)c1cc(Nc2nc(Nc3ccc(OCCN4CCCC4)cc3)ncc2C)ccc1C` [2,N-Dimethyl-5-{5-methyl-2-[4-(2-pyrrolidin-1-yl-ethoxy)-phenylamino]-pyrimidin-4-ylamino}-benzenesulfonamide] belongs 127 nM; to `CCOC(=O)c1cccc(Nc2nc(Nc3ccc(N4CCN(C)CC4)cc3)ncc2C)c1C` [2-Methyl-3-{5-methyl-2-[4-(4-methyl-piperazin-1-yl)-phenylamino]-pyrimidin-4-ylamino)-benzoic acid ethyl ester], 27.8 nM.
To `Cc1cnc(Nc2ccc(N3CCN(C)CC3)cc2)nc1Nc1cccc(C(N)=O)c1C` [2-Methyl-3-{5-methyl-2-[4-(4-methyl-piperazin-1-yl)-phenylamino]-pyrimidin-4-ylamino}-benzamide] belongs 26.2 nM; to `Cc1cnc(Nc2ccc(N3CCN(C)CC3)cc2)nc1Nc1cccc(C2CCN(CCO)CC2)c1` [2-[4-(3-{5-Methyl-2-[4-(4-methyl-piperazin-1-yl)-phenylamino]-pyrimidin-4-ylamino}-phenyl)-piperidin-1-yl]-ethanol], 8.46 nM; to `COc1cc(Nc2nc(Nc3ccc(OCCO)cc3)ncc2C)ccc1Cl` [2-{4-[4-(4-Chloro-3-methoxy-phenylamino)-5-methyl-pyrimidin-2-ylamino]-phenoxy}-ethanol], 9.14 nM.
As for `Cc1cnc(Nc2ccc(OCCO)nc2)nc1Nc1cccc2c1OCO2` [2-{5-[4-(Benzo[1,3]dioxol-4-ylamino)-5-methyl-pyrimidin-2-ylamino]-pyridin-2-yloxy}-ethanol], the IC50 is 116 nM.
To `Cc1cnc(Nc2ccc(OCCN3CCCC3)cc2)nc1Nc1cccc(O)c1` [3-(2-(4-(2-(pyrrolidin-1-yl)ethoxy)phenylamino)-5-methylpyrimidin-4-ylamino)phenol Hydrochloride] belongs 203 nM.
To `Cc1cnc(Nc2ccc(OC3CCNCC3)cc2)nc1Nc1cccc(O)c1` [3-(2-(4-(piperidin-4-yloxy)phenylamino)-5-methylpyrimidin-4-ylamino)phenol] belongs 51.9 nM; to `CC(=O)N1CCN(c2ccc(Nc3ncc(C)c(Nc4cccc(S(=O)(=O)NC(C)(C)C)c4)n3)cc2C(F)(F)F)CC1` [3-[(2-{[4-(4-acetylpiperazin-1-yl)-3-(trifluoromethyl)phenyl]amino}-5-methylpyrimidin-4-yl)amino]-N-tert-butylbenzenesulfonamide], 35.7 nM; to `CC(=O)N1CCN(c2ccc(Nc3ncc(C)c(Nc4cccc(S(=O)(=O)NC(C)(C)C)c4)n3)cc2)CC1` [3-{2-[4-(4-Acetyl-piperazin-1-yl)-phenylamino]-5-methyl-pyrimidin-4-ylamino}-N-tert-butyl-benzenesulfonamide], 18.6 nM.
`Cc1cnc(Nc2ccc(OCCN3CCCC3)cc2)nc1Nc1cccc(S(N)(=O)=O)c1` [3-{5-Methyl-2-[4-(2-pyrrolidin-1-yl-ethoxy)-phenylamino]-pyrimidin-4-ylamino}-benzenesulfonamide]: the 50% inhibitory concentration (IC50) was 72.2 nM.
To `Cc1cnc(Nc2ccc(N3CCN(C)CC3)cc2)nc1Nc1cccc(S(=O)(=O)NC2CCNCC2)c1` [3-{5-Methyl-2-[4-(4-methyl-piperazin-1-yl)-phenylamino]-pyrimidin-4-ylamino}-N-piperidin-4-yl-benzenesulfonamide] belongs 543 nM.
